Assay [1] relates to sAPPβ (BACE1 cleavage of SEAP-APPwt) in SY5Y-BACEGFP-SEAPAPPwt cells. The assay is described as follows: cell-based BACE1 assay (sAPPβ modified ELISA). On the procedure:
FIG. 1. An sAPPβ assay utilized to identify inhibitors of BACE1. The assay utilizes SY5Y cells stably overexpressing BACE-GFP and SEAP-APPwt. Cells are incubated with a candidate compound for 6 hours prior to harvesting media. BACE1-mediated cleavage of APP results in the release of sAPPβ into the media. α-secretase, a competing enzyme that is non-amyloidogenic, also cleaves APP to release […]. Using an sAPPβ-specific antibody (sβwt), SEAP-sAPPβ is specifically captured in a modified ELISA assay. Detection is achieved by addition of the fluorescent alkaline phosphatase substrate, 4-methylumbelliferyl phosphate (4-MUP).
FIG. 13. […] Compounds were tested in SY5Y-BACEGFP-SEAPAPPwt cells using the cell-based BACE1 assay. Select compounds were also investigated for Aβ-lowering effect using a commercial Aβ ELISA kit (BioSource). All compounds were tested at 8 concentrations (30, 10, 3, 1, 0.3, 0.1, 0.03, and 0.01 μM), and data points were analyzed with Origin software and fitted using a logistic model for IC50 determination.
As described in the Examples below, and depicted in FIG. 1, an sAPPβ ELISA assay may comprise cells, for example, SY5Y cells, transfected with a BACE1 reporter construct, such as a GFP-tagged BACE1 (BACE-GFP), and a wild type APP reporter construct, such as a secreted alkaline phosphatase (SEAP)-tagged wild type APP (SEAP-APPwt). BACE1 cleavage of the reporter-tagged APP (e.g. SEAP-APPwt) may result in secretion into the media of SEAP-tagged sAPPβ, which may be collected and specifically captured using an sAPPβ cleavage site-specific antibody (e.g. stβwt). Following washing, a substrate may be used, for example, the fluorescent alkaline phosphatase substrate 4-methylumbelliferyl phosphate (4-MUP), to detect the captured SEAP-sAPPβ.
A cell-based modified ELISA assay for measuring sAPPβ, the secreted ectodomain of β-amyloid precursor protein (APP) following β-secretase (BACE1) cleavage, was used to identify a class of compounds that interfered with the first step of sAPPβ generation. This assay has been described in International Application PCT/US2007/015938 (Published as International Publication No. WO 08/008463), which is herein incorporated in its entirety for all purposes.
The SY5Y-BACEGFP-SEAPAPPwt cell based assay was developed to discover novel small molecule modulators of BACE1 activity. SY5Y cells were stably transfected with GFP-tagged BACE1 (BACE-GFP) and secreted alkaline phosphatase (SEAP)-tagged wildtype APP (SEAP-APPwt). BACE1 cleavage of SEAP-APPwt results in secretion into the media of SEAP-tagged sAPPβ, which is collected and specifically captured using an sAPP0 cleavage site-specific antibody (sβwt). After washing, the fluorescent alkaline phosphatase substrate 4-methylumbelliferyl phosphate (4-MUP) is used to detect the captured SEAP-sAPPβ (FIG. 1).
The 15 LDDN compounds selected based on their 3-point dose-response profile were tested at 12 concentrations (ranging from 0.1 nM to 30 μM) in the cell-based BACE1 assay. The assay was conducted in 96-well format to maximize the Z′ factor. Compounds were characterized in duplicate cell plates, each containing 12 doses of compound in triplicate. Cell viability was measured at 6 and 24 hours using Promega's Cell Titer-Glo kit according to the manufacturer's protocol. The dose-response curves for sAPPβ reduction were plotted using Origin software and fitted using a logistic model for IC50 determination.
27 structural analogs of LDN-0057228 were synthesized and tested using the cell-based BACE1 assay in SY5Y-BACEGFP-SEAPAPPwt cells (FIG. 13). 4 analogs, in addition to the parent compound, were also assessed for Aβ40 lowering activity using a commercial Aβ kit (BioSource). Because LDN-0057228 resembles CNS monoamine transporter inhibitors, this analog series was given the designation “CNS.” LDN-0057228 gave an unexpectedly low potency (IC50˜20 μM for both sAPPβ and Aβ40 reduction) compared to the ˜7 μM potency obtained using the same compound in FIG. 8.
In general terms: An ELISA detects its analyte on a solid surface through an enzyme-linked reagent.

In assay [2] the test system is Aβ40 in Tg2576 primary cortical neurons. The assay is described as follows: Aβ40 ELISA in Tg2576 primary cortical neurons. The class given is cell-based, mouse. Conditions: 24 hours, normalized to total protein. The procedure:
FIG. 17A-B. LDN-0057228 and CNS-2 reduce Aβ40 and sAPPβ in Tg2576 primary neurons. Primary cortical neurons were cultured from P0 APPsw transgenic pups (Tg2576). DIV-14 neurons were treated for 24 hours with LDN-0057228 or CNS-2 at the indicated concentrations. Data from two independent experiments were pooled. A) Media was collected for Aβ40 ELISA. Raw Aβ40 values were normalized to total protein to control for variations in plating density or any cytotoxicity resulting from the compounds. B) sAPPβ in the media was immunoprecipitated with sβsw antibody and visualized on Western blot with LN27.
Culturing primary neurons from Tg2576 pups offers the advantage of equal APP expression, but suffers the drawback of lower yield since only half the pups contains the transgene. Furthermore, because neurons from each pup has to be plated separately, plating density and neuronal survivability may vary from mouse to mouse. Thus, total protein was used to normalize the data.
CNS-2 and LDN-0057228 were evaluated in the Tg2576 pup system (FIG. 17). Primary cortical neurons were harvested from P0 Tg2576 pups. Each pup yielded 3 wells on a 12-well plate at a plating density of 0.8×10^5 cells per well. After genotyping, neurons from each transgenic pup (APPsw +/−) were treated with DMSO, LDN-0057228 (20 μM), or CNS-2 (5 μM) at DIV-14 for 24 hours. […]

Where [3] appears, read: SAR study, 8 concentrations (30-0.01 μM), SY5Y-BACEGFP-SEAPAPPwt cells, read-out: IC50(sAPPβ).

Like-named read-outs stand apart in the source and are kept apart here.

In general, IC50 refers to the concentration that inhibits the measured activity by half. `O=C(CCc1ccccc1)NC[C@@H]1CCCN1CCOC(c1ccc(F)cc1)c1ccc(F)cc1` [CNS-2]: in assay [1] (setting [3]), the IC50 turned out to be 8.9 µM. Also, the “reduction in Aβ40” value in assay [2] (5 μM) amounted to 60%.
For `Fc1ccc(C(OCCN2CCC[C@H]2CNCCc2ccccc2)c2ccc(F)cc2)cc1` [LDN-0057228], the IC50 in assay [1] (12 concentrations 0.1 nM to 30 μM, 96-well format (FIG. 8), read-out: cell-based IC50 (sAPPβ), 12-point dose-response) was approximately 7 µM; in assay [1] (setting [3]), approximately 20 µM. Besides, the “reduction in Aβ40” value in assay [2] (20 μM) was 65%.

These data come from US20110071124A1, “Compounds that Inhibit Production of sAPPB and AB and Uses Thereof” (The Trustees of Columbia University in the City of New York, priority 2008, published 2011).
